The NIST ThermoML archive (doi:10.1016/j.fluid.2015.07.031)
“And” between values parts separate entries of the source, which are not always exact repeats. Identical values can stand only once.

Key:
[1] = Closed cell (Static) method
[2] = molar heat capacity at constant pressure; conditions: 101.33 kPa, Liquid, Thin-film microcalorimeter

CC1(C)[C@H]2CC[C@]1(C)[C@H](O)C2 [(1S-endo)-1,7,7-trimethylbicyclo[2.2.1]heptan-2-ol]
[1]
Conditions | vapor or sublimation pressure
293.12 K, Crystal 2 | 0.001843 kPa
293.13 K, Crystal 2 | 0.001845 kPa and 0.001846 kPa
298.14 K, Crystal 2 | 0.003114 kPa and 0.003117 kPa
298.15 K, Crystal 2 | 0.003118 kPa
303.16 K, Crystal 2 | 0.005163 kPa and 0.005164 kPa
303.17 K, Crystal 2 | 0.005165 kPa
308.16 K, Crystal 2 | 0.008376 kPa
308.18 K, Crystal 2 | 0.008394 kPa and 0.008395 kPa
313.13 K, Crystal 2 | 0.01335 kPa
313.14 K, Crystal 2 | 0.01336 kPa and 0.01337 kPa
318.14 K, Crystal 2 | 0.02101 kPa and 0.02103 kPa
318.15 K, Crystal 2 | 0.02103 kPa
323.17 K, Crystal 2 | 0.03267 kPa
323.18 K, Crystal 2 | 0.03269 kPa
323.19 K, Crystal 2 | 0.03273 kPa
328.14 K, Crystal 2 | 0.04968 kPa and 0.04971 kPa
328.15 K, Crystal 2 | 0.04973 kPa
333.18 K, Crystal 2 | 0.07494 kPa and 0.07496 kPa and 0.07498 kPa
338.2 K, Crystal 2 | 0.1112 kPa
338.21 K, Crystal 2 | 0.1112 kPa
343.15 K, Crystal 2 | 0.1618 kPa and 0.1619 kPa
346.99 K, Crystal 2 | 0.2143 kPa
347.09 K, Crystal 2 | 0.2157 kPa
347.1 K, Crystal 2 | 0.2156 kPa
348.11 K, Crystal 1 | 0.2309 kPa and 0.2308 kPa and 0.2307 kPa
352.88 K, Crystal 1 | 0.3183 kPa
352.89 K, Crystal 1 | 0.3183 kPa and 0.3184 kPa
357.96 K, Crystal 1 | 0.4417 kPa and 0.4418 kPa
357.97 K, Crystal 1 | 0.4424 kPa
362.89 K, Crystal 1 | 0.6015 kPa
362.9 K, Crystal 1 | 0.6015 kPa
362.94 K, Crystal 1 | 0.6029 kPa

CC(C)=CCC[C@H](C)CCO [(S)-3,7-dimethyl-6-octen-1-ol]
[2]
Conditions | molar heat capacity at constant pressure [J/K/mol]
260.2 K | 316.4
265 K | 320.7
270 K | 325.5
275 K | 330.5
280 K | 335.6
285 K | 340.9
290 K | 346.5
295 K | 352.3
300 K | 357.9
305 K | 363.6
310 K | 369.3
315 K | 375
320 K | 380.6
325 K | 386.5
330 K | 392.9
335 K | 398.8
340 K | 404
345 K | 409.2
350 K | 414.6
355 K | 420

[1], Liquid
Conditions | vapor or sublimation pressure
273.65 K | 0.000129 kPa and 0.00013 kPa and 0.000133 kPa
278.15 K | 0.000231 kPa and 0.000228 kPa and 0.000235 kPa
283.15 K | 0.00043 kPa and 0.000432 kPa
288.15 K | 0.00077 kPa and 0.000777 kPa and 0.000779 kPa
293.15 K | 0.001361 kPa and 0.001358 kPa
293.17 K | 0.001319 kPa and 0.001331 kPa and 0.001328 kPa
298.15 K | 0.00233 kPa and 0.002328 kPa and 0.002323 kPa
298.18 K | 0.002272 kPa
298.19 K | 0.00227 kPa
298.2 K | 0.002271 kPa
303.15 K | 0.003871 kPa and 0.003875 kPa and 0.003876 kPa
303.16 K | 0.003787 kPa
303.19 K | 0.003806 kPa
303.2 K | 0.003795 kPa
308.15 K | 0.006284 kPa and 0.006296 kPa and 0.006302 kPa
308.19 K | 0.006203 kPa and 0.006213 kPa
308.21 K | 0.006198 kPa
313.2 K | 0.009899 kPa
313.21 K | 0.009904 kPa and 0.009905 kPa
318.23 K | 0.01566 kPa
318.24 K | 0.01565 kPa and 0.01566 kPa
323.22 K | 0.0243 kPa
323.23 K | 0.02431 kPa
328.2 K | 0.03714 kPa
328.21 K | 0.03718 kPa and 0.03714 kPa
333.23 K | 0.05589 kPa and 0.05585 kPa and 0.05576 kPa
338.19 K | 0.08215 kPa
338.2 K | 0.08219 kPa and 0.08218 kPa
343.19 K | 0.1192 kPa and 0.1193 kPa
348.14 K | 0.1705 kPa
348.15 K | 0.1706 kPa
353.1 K | 0.2403 kPa and 0.2404 kPa
358.01 K | 0.3337 kPa
358.02 K | 0.3345 kPa and 0.3342 kPa
362.97 K | 0.4601 kPa
362.98 K | 0.4602 kPa and 0.4607 kPa

CC(C)=CCC/C(C)=C/CO [(E)-3,7-dimethyl-2,6-octadien-1-ol]
[2]
Conditions | molar heat capacity at constant pressure [J/K/mol]
260.8 K | 310.1
265 K | 313.5
270 K | 317.5
275 K | 322.2
280 K | 326.7
285 K | 331.3
290 K | 336.2
295 K | 341.3
300 K | 346.1
305 K | 350.9
310 K | 355.8
315 K | 360.7
320 K | 365.6
325 K | 370.6
330 K | 376.2
335 K | 381.1
340 K | 385.5
345 K | 389.8
350 K | 394.3
355 K | 398.6

[1], Liquid
Conditions | vapor or sublimation pressure
273.65 K | 0.000112 kPa and 0.000109 kPa and 0.000111 kPa
278.15 K | 0.00019 kPa and 0.000192 kPa and 0.000195 kPa
283.15 K | 0.000357 kPa and 0.000355 kPa and 0.000358 kPa
288.15 K | 0.000641 kPa and 0.000637 kPa and 0.000639 kPa
293.11 K | 0.001082 kPa
293.14 K | 0.001071 kPa and 0.001079 kPa
293.15 K | 0.001116 kPa and 0.001114 kPa and 0.001118 kPa
298.15 K | 0.001894 kPa [middle of 6 runs]
303.15 K | 0.003189 kPa and 0.003178 kPa and 0.00319 kPa
303.17 K | 0.003087 kPa and 0.003101 kPa
303.18 K | 0.003091 kPa
308.15 K | 0.005168 kPa and 0.00517 kPa and 0.005167 kPa
308.19 K | 0.005018 kPa and 0.005019 kPa and 0.005016 kPa
313.16 K | 0.008035 kPa and 0.008051 kPa and 0.008055 kPa
318.16 K | 0.01263 kPa and 0.01264 kPa and 0.01265 kPa
323.17 K | 0.0196 kPa and 0.01965 kPa and 0.0197 kPa
328.17 K | 0.03003 kPa and 0.0301 kPa
333.16 K | 0.04478 kPa and 0.04499 kPa and 0.04502 kPa
338.14 K | 0.06605 kPa and 0.06612 kPa and 0.06614 kPa
343.13 K | 0.09605 kPa and 0.09608 kPa and 0.0961 kPa
348.1 K | 0.1372 kPa and 0.1373 kPa
353.07 K | 0.194 kPa and 0.1941 kPa
358.04 K | 0.2693 kPa and 0.2697 kPa
362.92 K | 0.3686 kPa and 0.3687 kPa
362.94 K | 0.3684 kPa
